Measurements as given in patent publication US20210023012A1, “Solid Pharmaceutical Compositions for Treating HCV” (AbbVie Inc., priority 2019, published 2021).
Marks after values point to notes of the source that are not given here.

Key:
[1] = Phase 1 single-dose crossover: bioavailability and food effect of Compound 1/Compound 2 bilayer tablets; assay type: in vivo, human; details: for Cmax / AUC(0-inf) / AUC(0-t) / half-life / Tmax: human, in vivo, oral, N = 23; for Cmax / AUC(0-inf) / AUC(0-t): geometric mean; for half-life: harmonic mean; for Tmax: median
Experimental: Phase 1, single-dose, four-period, randomized, complete crossover clinical trials were conducted to determine the bioavailability and food effect of the Compound 1/Compound 2 film-coated bilayer tablets. Tablets described in Table 1b were used in Regimens A, B and C, and separate tablets containing either Compound 1 or Compound 2 were used in Regimen D. Subjects took a single dose of Compound 1/Compound 2 on Day 1 of each Period. There was a washout of 4 days between doses. • i. Regimens A and D: study drugs were taken under fasting conditions. • ii. Regimen B: study drugs were taken approximately 30 minutes after start of moderate-fat breakfast (about 30% calories from fat). • iii. Regimen C: study drugs were taken approx. 30 minutes after start of high-fat breakfast (50% calories from fat). For Regimens A, B and C, the single dose consisted of three tablets of Table 1b, each tablet contains 100 mg/40 mg Compound 1/Compound 2. For Regimen D, the single dose contained three tablets of Compound 1, each of which contained 100 mg Compound 1, as well as three tablets of Compound 2, each of which contained 40 mg Compound 2. [table] [table]

[2] = Single-dose crossover: bioavailability of Compound 1/Compound 2 mini-tablets; assay type: in vivo, human; details: for Cmax / AUC(0-inf) / AUC(0-t) / half-life / Tmax: human, in vivo, oral, N = 14; for Cmax / AUC(0-inf) / AUC(0-t): geometric mean; for half-life: harmonic mean; for Tmax: median
Experimental: In comparison, when administered with food, the mini-tablets provided an AUC that was only 5% lower than that provided by the regular tablets. […] All of the reference AUCs of the regular tablets were measured under fasting conditions.
14 subjects were enrolled in this study and dosed with co-formulated Compound 1/Compound 2 in mini-tablets. One subject spilled 4 mini-tablets (out of 100-150 total mini-tablets) during dosing of Period 2 (Regimen G) and was not excluded from the analysis. The mini-tablets were prepared according to a process similar to that described in Example 2.

[3] = Steady-state pharmacokinetics of film-coated granules in pediatric subjects by age group; assay type: in vivo, human; design: Ctrough: unit not given here; details: for Ctrough / AUC: Week 2; for AUC: human, oral, film-coated granules
Experimental: The study was designed to assess the steady state AUC and to assess the pharmacokinetics (PK) of Compound 1/Compound 2 in pediatric subjects by age group. […] Subjects were enrolled in this study and dosed with film-coated granules containing Compound 1/Compound 2 as generally described above in Example 3. [table] An intensive PK sample draw was done at the Week 2 visit with blood samples taken immediately prior to dose (0 hour) and at 2, 4, 6, and 12 hours post dose.

clinical = details: human, in vivo
From the text: Target AUC was derived from the geometric mean of AUC values from a population of adult subjects who received Compound 1 and Compound 2.

[4] = Predicted PK exposures (Pop-PK AUC) in pediatric subjects; assay type: in vivo; design: concentration or dose not given beside the values; details: human, oral
From the text: The predicted PK exposures (“Pop-PK AUC”) of Compound 1/Compound 2 based on all PK information collected in the study (including data from other study weeks) is shown in Table 13 and Table 13a.

[5] = Pharmacokinetic properties in healthy subjects; assay type: in vivo, human; details: for Tmax: oral, median, single doses
[6] = Binding to human plasma proteins; assay type: in vitro ADME; details: read-out: % Bound to human plasma proteins (converted)
Blood-to-plasma ratio = assay type: in vitro ADME; details: human, whole blood/plasma
[7] = Mass balance studies with [14C] compound, single dose; assay type: in vivo, human; details: single dose of [14C] compound
[8] = Phase 1 single-dose crossover: bioavailability and food effect of Compound 1/Compound 2 bilayer tablets; assay type: in vivo, human; details: film-coated vs uncoated bilayer tablets, additional studies
[9] = Regimen A: single dose bilayer tablets 300 mg/120 mg, fasting
[10] = Regimen B: single dose bilayer tablets 300 mg/120 mg with moderate fat breakfast
[11] = Regimen C: single dose bilayer tablets 300 mg/120 mg with high fat breakfast
[12] = Regimen D: single dose separate Compound 1 tablets (3 × 100 mg) and Compound 2 tablets (3 × 40 mg), fasting
[13] = Regimen F: single dose mini-tablets 200 mg/120 mg, fasting
[14] = Regimen G: single dose mini-tablets 200 mg/120 mg, non-fasting
[15] = Regimen J: two Compound 1 tablets (100 mg each) and three Compound 2 tablets (40 mg each), fasting
[16] = mean systemic exposure with moderate to high fat meals

Effect of administration with food on bioavailability ([1]; bilayer tablets): significantly improved | Cmax ([1]; Regimen A: single dose bilayer tablets 300 mg/120 mg (3 × 100 mg/40 mg), fasting): 0.294 µg/mL | AUC(0-inf) [1, 9]: 1.15 µg·h/mL | AUC(0-t) [1, 9]: 1.15 µg·h/mL | half-life [1, 9]: 6 h | Tmax [1, 9]: 3 h | AUC(0-inf) [1, 10]: 3.04 µg·h/mL | AUC(0-t) [1, 10]: 3.04 µg·h/mL | Cmax [1, 10]: 0.937 µg/mL | half-life [1, 10]: 6 h | Tmax [1, 10]: 4 h | AUC(0-inf) [1, 11]: 2.12 µg·h/mL | AUC(0-t) [1, 11]: 2.11 µg·h/mL | Cmax [1, 11]: 0.633 µg/mL | half-life [1, 11]: 6.3 h | Tmax [1, 11]: 5 h | AUC(0-inf) [1, 12]: 2.62 µg·h/mL | AUC(0-t) [1, 12]: 2.62 µg·h/mL | Cmax [1, 12]: 0.803 µg/mL | half-life [1, 12]: 5.7 h | Tmax [1, 12]: 2 h | Effect of administration with food on bioavailability ([2]; co-formulated mini-tablets): significantly increased | Cmax ([2]; Regimen F: single dose mini-tablets 200 mg/120 mg Compound 1/Compound 2, fasting): 0.123 µg/mL | AUC(0-inf) [2, 13]: 0.432 µg·h/mL | AUC(0-t) [2, 13]: 0.428 µg·h/mL | half-life [2, 13]: 5.61 h | Tmax [2, 13]: 1 h | Cmax ([2]; Regimen G: single dose mini-tablets 200 mg/120 mg Compound 1/Compound 2, non-fasting): 0.166 µg/mL | AUC(0-inf) [2, 14]: 0.704 µg·h/mL | AUC(0-t) [2, 14]: 0.699 µg·h/mL | half-life [2, 14]: 6.42 h | Tmax [2, 14]: 1.75 h | Cmax ([2]; Regimen J: single dose two Compound 1 tablets (100 mg each) and three Compound 2 tablets (40 mg each), fasting): 0.212 µg/mL | AUC(0-inf) [2, 15]: 0.742 µg·h/mL | AUC(0-t) [2, 15]: 0.738 µg·h/mL | half-life [2, 15]: 5.93 h | Tmax [2, 15]: 1.5 h | AUC of mini-tablets lower than that of regular tablets (fasting) ([2]; mini-tablets with food, 200 mg Compound 1): 5% | AUC of mini-tablets lower than that of regular tablets (fasting) ([2]; mini-tablets without food, 200 mg Compound 1 / 120 mg Compound 2, same solid dispersion formulation): 41% | Ctrough ([3]; 3 to <6 years old, post-adjustment 150 mg/60 mg, N 10): 9.8 | Ctrough ([3]; 6 to <9 years old, post-adjustment 200 mg/80 mg, N 9): 8.2 | Ctrough ([3]; 9 to <12 years old, post-adjustment 250 mg/100 mg, N 10): 17.0 | AUC ([3]; blood, 3 to <6 years old, post-adjustment, 3 sachets, 150 mg/60 mg, N 10, read-out: AUC): 6.7 µg·h/mL | AUC ([3]; blood, 6 to <9 years old, post-adjustment, 4 sachets, 200 mg/80 mg, N 9, read-out: AUC): 5.97 µg·h/mL | AUC ([3]; blood, 9 to <12 years old, post-adjustment, 5 sachets, 250 mg/100 mg Compound 1/Compound 2, N 10, read-out: AUC): 8.67 µg·h/mL | AUC ([3]; in vivo, 3 to <6 years old, pre-adjustment, 3 sachets, 120 mg/45 mg, read-out: AUC, Geometric Mean): 3.03 µg·h/mL | AUC ([3]; in vivo, 6 to <9 years old, pre-adjustment, 4 sachets, 160 mg/60 mg, read-out: AUC, Geometric Mean): 1.68 µg·h/mL | AUC ([3]; in vivo, 9 to <12 years old, pre-adjustment, 5 sachets, 200 mg/75 mg Compound 1/Compound 2, read-out: AUC, Geometric Mean): 4.07 µg·h/mL | AUC (clinical): 4.8 µg·h/mL | AUC ([4]; blood, Table 13, 3 to <6 years old, N 10, predicted): 6.31 µg·h/mL | AUC ([4]; blood, Table 13, 6 to <9 years old, N 9, predicted): 5.77 µg·h/mL | AUC ([4]; blood, Table 13, 9 to <12 years old, N 10, predicted from all PK information collected in the study): 5.18 µg·h/mL | AUC ([4]; in vivo, Table 13a, 3 to <6 years old, N 10, predicted): 8.99 µg·h/mL | AUC ([4]; in vivo, Table 13a, 6 to <9 years old, N 9, predicted): 5.16 µg·h/mL | AUC ([4]; in vivo, Table 13a, 9 to <12 years old, N 10, predicted): 8.12 µg·h/mL | Metabolism ([5]; Biotransformation): Secondary | Major route of elimination ([5]; human, in vivo): Biliary | Tmax ([5]; human, in vivo, healthy subjects, read-out: Tmax of granules): 3 to 4 h | Tmax ([5]; human, in vivo, healthy subjects, read-out: Tmax of tablets): 5 h | half-life ([5]; human, in vivo, healthy subjects, read-out: t1/2 at steady-state): 6 to 9 h | Effect of meal (relative to fasting) on adult tablets, ↑ [5, 16]: ↑ 83-163% | Effect of meal (relative to fasting) on granules, ↑ [5, 16]: ↑ 131-168% | fraction unbound [6]: 0.025 | blood plasma ratio (Blood-to-plasma ratio): 0.57 | % of dose excreted in faeces [7]: 92.1^d % | % of dose excreted in urine [7]: 0.7% | Impact of film-coating on bioavailability [8]: minimal impact
SMILES: CC(C)(C)[C@@H]1NC(=O)O[C@@H]2CCC[C@H]2OC/C=C/C(F)(F)c2nc3ccccc3nc2O[C@@H]2C[C@@H](C(=O)N[C@]3(C(=O)NS(=O)(=O)C4(C)CC4)C[C@H]3C(F)F)N(C2)C1=O [Compound 1]
Exposures in children aged 3 to <12 years vs adolescents 12 to <18 years and adults from Phase 2/3 studies ([3]; recommended doses according to body weight): comparable
